US20020133832A1, “Model systems for neuordegenerative and cardiovascular disorders” (priority 2000, published 2002)
Entries after “also recorded” stand apart in the source; their conditions may differ.

Experiments:
Format in all cases: in vivo, mouse
S1+/− and T1+/− mice = assay: Rescue of reduced rearing behavior (rearings/min) in the open field; conditions: terazosin target dose 0.05 mg/kg body weight/day via drinking water, four weeks, L-DOPA as Sinemet
Description: FIG. 6. An Active Open Field Activity System (Harvard Apparatus, Holliston, Mass.) was used to monitor total activity, distance traveled/min and number of rearings/min in age matched NT (▴), W2+/−(▪), S1+/−(●) and T1+/−(▾) and T2+/−(♦) mice. The open field for these experiments was a 16 inch by 16 inch enclosure with infrared beams of light aimed to form grids near the floor and 3 inches above the floor of the enclosure. (A) Total activity, or the total number of beam breaks each minute, was determined in two month old mice for a total time of 15 min. (B) A computer algorithm was used to calculate the distance traveled/min during horizontal ambulation by mice of varying age. (C) The number of rearings/minute was determined by electronically tallying the number of times mice of varying age reared onto their hindlimbs, facilitating a greater than 1 sec beam break in the upper grid (3 inches above the floor of the enclosure). (D) Snapshot of an 11 month old S1+/− mouse showing elongation of the torso caused by sprawling and dragging of the hindlimbs. (E) The ability of terazosin and L-DOPA to rescue the reduced number of rearings/min seen in eighteen month old S1+/− and T1+/− mice was tested by administering a target dose of 0.05 mg terazosin/kg body weight/day via the drinking water. After a four week pretreatment with the drug, the number of rearings/min was determined. All error bars in the Figurere present SEM (n>3) and significance in D was determined using analysis of variance with a two-tailed Student's t test (p<0.05).
Receptor overactivity was inhibited in S1+/− and T1+/− mice via treatment with the α1BAR-specific antagonist terazosin. Animals were treated with the drug at a target dose of 0.05 mg/Kg of body weight/day via the drinking water. […] (FIG. 6E).

T2+/− mice [1] = assay: Percent seizure activity induced by intraperitoneal injection (IPI) stress; conditions: T2 mice at 7 months of age, 0.05 mg/Kg body weight/day via drinking water, 4 weeks, 0.05 mg/kg/day
Protocol: (§1) FIG. 7. (A) Sequence of seizure behaviors in a 12 month old T2+/− mouse. 1; behavioral arrest. 2; loss of balance and whole body jerking. 3; forelimb flexion. 4; recovery. (B) Comparison of percent seizure activity induced by open field stress in various lines of mice at 12 months of age. […] Percent seizure activity was then calculated by dividing the number of seizure-positive mice by the total number of mice tested. The total number of mice tested for each case is shown above the respective column in the graph. The ability of terazosin to rescue T2+/− mice from the seizure phenotype was tested by administering a target dose of 0.05 mg/kg body weight/day via the drinking water. After a four week pretreatment with the drug, percent seizure activity was determined. (C) Identical experiment to that described in B, except percent seizure activity was determined in lines of mice at seven months of age that were exposed to intraperitoneal injection (IPI) stress. IPI stress was administered to the mice by intraperitoneal injection of […] of sterile 0.9% NaCl.
Seizures seen in response to this intraperitoneal injection stress (IPI stress) resembled the open field stress-induced event in terms of severity, characteristics and duration. […]

T2+/− mice [2] = assay: Percent seizure activity induced by open field stress; conditions: T2 mice at 12 months of age, 0.05 mg/Kg body weight/day via drinking water, four weeks
Protocol: as §1
The seizure event seen in W2+/−, S 1+/−, T1+/− and T2+/− mice at twelve months of age was evoked by exposure to the open field (i.e. handling-invoked stress) and was characterized by behavioral arrest, facial twitching, loss of balance, forelimb automatism, whole body jerking and hypersalivation. […]

| SMILES | rearing behavior (number of rearings/min) (S1+/− and T1+/− mice; eighteen month old S1+/− mice) | rearing behavior (number of rearings/min) (S1+/− and T1+/− mice; eighteen month old T1+/− mice) | percent seizure activity (T2+/− mice [1]) | percent seizure activity (T2+/− mice [2]) |
| --- | --- | --- | --- | --- |
| N[C@@H](Cc1ccc(O)c(O)c1)C(=O)O [L-DOPA] | did not improve the locomotor activity | dramatically reversed the rearing deficit |  |  |
| COc1cc2nc(N3CCN(C(=O)C4CCCO4)CC3)nc(N)c2cc1OC (stereo not drawn) [terazosin] | partial rescue of the rearing behavior | partial rescue of the rearing behavior | reduced the number of younger T2+/− mice displaying IPI-induced seizures; also recorded: partially reversed the phenotype | partially reversible i.e., fewer events |
